Where “and” joins values, the source holds several entries; their conditions need not be identical. Identical values can stand only once. Inconclusive results and toxic doses are left out.
Test system: AKR/Lw mice, AKR lymphoma ip, median survival T/C
Test: NCI In Vivo Anticancer Drug Screen. Data for tumor model Lymphoma AKR (Transplanted) (intraperitoneal) in AKR/Lw mice
Conditions: endpoint: median survival time, higher = longer survival
Method: The antitumor activity of compounds was measured in mice bearing transplantable tumors. Survival or tumor size were measured and the results are expressed as the measurement made in the treated group (T) divided by the measurement made in the vehicle treated control group (C). The tumor model used in this assay is Lymphoma AKR (Transplanted) (intraperitoneal) in AKR/Lw mice

[1] = dose: 10.0 mg/kg/injection, schedule: Q01DX009 (ip), vehicle: saline
[2] = dose: 20.0 mg/kg/injection, schedule: Q01DX009 (ip), vehicle: saline
[3] = dose: 30.0 mg/kg/injection, schedule: Q01DX009 (ip), vehicle: saline
[4] = dose: 50.0 mg/kg/injection, schedule: Q04DX003 (ip), vehicle: saline
[5] = dose: 100.0 mg/kg/injection, schedule: Q01DX001 (ip), vehicle: Klucel (hydroxypropylcellulose) (HPC)
[6] = dose: 100.0 mg/kg/injection, schedule: Q04DX003 (ip), vehicle: Klucel (hydroxypropylcellulose) (HPC)
[7] = dose: 200.0 mg/kg/injection, schedule: Q01DX001 (ip), vehicle: saline
[8] = dose: 200.0 mg/kg/injection, schedule: Q01DX009 (ip), vehicle: saline
[9] = dose: 200.0 mg/kg/injection, schedule: Q04DX003 (ip), vehicle: Klucel (hydroxypropylcellulose) (HPC)
[10] = dose: 400.0 mg/kg/injection, schedule: Q01DX001 (ip), vehicle: Klucel (hydroxypropylcellulose) (HPC)

SMILES: S=c1nc[nH]c2nc[nH]c12
- T/C (dose: 6.25 mg/kg/injection, schedule: Q01DX015 (ip), vehicle: Klucel (hydroxypropylcellulose) (HPC)): 110 % of control
- T/C [1]: 94 % of control
- T/C (dose: 12.5 mg/kg/injection, schedule: Q01DX015 (ip), vehicle: Klucel (hydroxypropylcellulose) (HPC)): 100 % of control
- T/C [2]: 94 % of control and 102 % of control and 105 % of control
- T/C (dose: 25.0 mg/kg/injection, schedule: Q01DX015 (ip), vehicle: Klucel (hydroxypropylcellulose) (HPC)): 100 % of control
- T/C (dose: 30.0 mg/kg/injection, schedule: Q01DX001 (ip), vehicle: saline): 104 % of control and 109 % of control and 112 % of control
- T/C [3]: 100 % of control
- T/C (dose: 30.0 mg/kg/injection, schedule: Q04DX003 (ip), vehicle: saline): 102 % of control
- T/C (dose: 37.5 mg/kg/injection, schedule: Q01DX009 (ip), vehicle: saline): 104 % of control
- T/C (dose: 40.0 mg/kg/injection, schedule: Q01DX009 (ip), vehicle: saline): 94 % of control and 97 % of control and 113 % of control
- T/C (dose: 50.0 mg/kg/injection, schedule: Q01DX009 (ip), vehicle: Klucel (hydroxypropylcellulose) (HPC)): 100 % of control
- T/C (dose: 50.0 mg/kg/injection, schedule: Q01DX009 (ip), vehicle: saline): 120 % of control
- T/C (dose: 50.0 mg/kg/injection, schedule: Q01DX015 (ip), vehicle: Klucel (hydroxypropylcellulose) (HPC)): 92 % of control and 93 % of control
- T/C [4]: 100 % of control
- T/C (dose: 60.0 mg/kg/injection, schedule: Q01DX001 (ip), vehicle: saline): 97 % of control and 111 % of control and 113 % of control
- T/C (dose: 60.0 mg/kg/injection, schedule: Q01DX009 (ip), vehicle: saline): 96 % of control
- T/C (dose: 60.0 mg/kg/injection, schedule: Q04DX003 (ip), vehicle: saline): 119 % of control
- T/C (dose: 75.0 mg/kg/injection, schedule: Q01DX001 (ip), vehicle: saline): 113 % of control
- T/C (dose: 75.0 mg/kg/injection, schedule: Q01DX009 (ip), vehicle: saline): 109 % of control
- T/C (dose: 80.0 mg/kg/injection, schedule: Q01DX009 (ip), vehicle: saline): 94 % of control and 123 % of control
- T/C [5]: 96 % of control
- T/C (dose: 100.0 mg/kg/injection, schedule: Q01DX009 (ip), vehicle: Klucel (hydroxypropylcellulose) (HPC)): 90 % of control
- T/C (dose: 100.0 mg/kg/injection, schedule: Q01DX009 (ip), vehicle: saline): 93 % of control
- T/C [6]: 97 % of control and 100 % of control and 108 % of control
- T/C (dose: 100.0 mg/kg/injection, schedule: Q04DX003 (ip), vehicle: saline): 102 % of control and 123 % of control
- T/C (dose: 120.0 mg/kg/injection, schedule: Q01DX001 (ip), vehicle: saline): 93 % of control and 104 % of control and 222 % of control
- T/C (dose: 120.0 mg/kg/injection, schedule: Q04DX003 (ip), vehicle: saline): 100 % of control
- T/C (dose: 150.0 mg/kg/injection, schedule: Q01DX001 (ip), vehicle: Klucel (hydroxypropylcellulose) (HPC)): 102 % of control and 112 % of control
- T/C (dose: 150.0 mg/kg/injection, schedule: Q01DX009 (ip), vehicle: saline): 100 % of control
- T/C (dose: 175.0 mg/kg/injection, schedule: Q01DX001 (ip), vehicle: Klucel (hydroxypropylcellulose) (HPC)): 100 % of control
- T/C [7]: 104 % of control
- T/C [8]: 110 % of control
- T/C [9]: 90 % of control
- T/C (dose: 200.0 mg/kg/injection, schedule: Q04DX003 (ip), vehicle: saline): 90 % of control
- T/C (dose: 300.0 mg/kg/injection, schedule: Q01DX001 (ip), vehicle: Klucel (hydroxypropylcellulose) (HPC)): 106 % of control
- T/C (dose: 300.0 mg/kg/injection, schedule: Q01DX001 (ip), vehicle: saline): 119 % of control
- T/C [10]: 113 % of control
- T/C (dose: 400.0 mg/kg/injection, schedule: Q01DX001 (ip), vehicle: saline): 102 % of control
- T/C (dose: 400.0 mg/kg/injection, schedule: Q04DX003 (ip), vehicle: Klucel (hydroxypropylcellulose) (HPC)): 121 % of control
- T/C (dose: 600.0 mg/kg/injection, schedule: Q01DX001 (ip), vehicle: Klucel (hydroxypropylcellulose) (HPC)): 115 % of control

SMILES: CC(CN1CC(=O)NC(=O)C1)N1CC(=O)NC(=O)C1 (stereo not drawn)
- T/C (dose: 0.5 mg/kg/injection, schedule: Q01DX009 (ip), vehicle: saline): 103 % of control
- T/C (dose: 1.6 mg/kg/injection, schedule: Q01DX009 (ip), vehicle: saline): 116 % of control
- T/C (dose: 2.0 mg/kg/injection, schedule: Q01DX009 (ip), vehicle: saline): 109 % of control
- T/C (dose: 2.5 mg/kg/injection, schedule: Q01DX009 (ip), vehicle: saline): 90 % of control
- T/C (dose: 3.1 mg/kg/injection, schedule: Q01DX009 (ip), vehicle: saline): 110 % of control and 113 % of control
- T/C (dose: 4.0 mg/kg/injection, schedule: Q01DX009 (ip), vehicle: saline): 181 % of control
- T/C (dose: 5.0 mg/kg/injection, schedule: Q01DX009 (ip), vehicle: saline): 106 % of control
- T/C [1]: 120 % of control
- T/C (dose: 12.5 mg/kg/injection, schedule: Q04DX003 (ip), vehicle: saline): 88 % of control and 90 % of control
- T/C [2]: 150 % of control
- T/C (dose: 25.0 mg/kg/injection, schedule: Q01DX001 (ip), vehicle: saline): 94 % of control
- T/C (dose: 25.0 mg/kg/injection, schedule: Q04DX003 (ip), vehicle: saline): 105 % of control and 107 % of control
- T/C [3]: 152 % of control
- T/C (dose: 35.0 mg/kg/injection, schedule: Q01DX009 (ip), vehicle: saline): 152 % of control
- T/C (dose: 50.0 mg/kg/injection, schedule: Q01DX001 (ip), vehicle: saline): 97 % of control and 106 % of control
- T/C [4]: 92 % of control and 100 % of control
- T/C (dose: 75.0 mg/kg/injection, schedule: Q04DX003 (ip), vehicle: saline): 94 % of control
- T/C (dose: 150.0 mg/kg/injection, schedule: Q01DX001 (ip), vehicle: water): 108 % of control
- T/C (dose: 150.0 mg/kg/injection, schedule: Q04DX003 (ip), vehicle: saline): 123 % of control
- T/C [8]: 108 % of control
- T/C (dose: 300.0 mg/kg/injection, schedule: Q01DX009 (ip), vehicle: saline): 106 % of control
- T/C (dose: 300.0 mg/kg/injection, schedule: Q04DX003 (ip), vehicle: saline): 100 % of control
- T/C (dose: 400.0 mg/kg/injection, schedule: Q01DX009 (ip), vehicle: saline): 100 % of control
- T/C (dose: 600.0 mg/kg/injection, schedule: Q01DX001 (ip), vehicle: water): 111 % of control

SMILES: OCC#CC#CCO
- T/C (dose: 100.0 mg/kg/injection, schedule: Q01DX001 (ip), vehicle: saline): 100 % of control
- T/C [7]: 92 % of control

SMILES: Cc1ccc(N2C(=O)CC(Sc3ccccc3N)C2=O)cc1 (stereo not drawn)
- T/C (dose: 50.0 mg/kg/injection, schedule: Q04DX003 (ip), vehicle: Klucel (hydroxypropylcellulose) (HPC)): 100 % of control
- T/C [5]: 100 % of control
- T/C [6]: 90 % of control
- T/C [9]: 90 % of control

SMILES: O=C1c2ccccc2-c2ncccc21
- T/C [5]: 100 % of control
- T/C (dose: 200.0 mg/kg/injection, schedule: Q01DX001 (ip), vehicle: Klucel (hydroxypropylcellulose) (HPC)): 120 % of control
- T/C [10]: 93 % of control
